One experiment has as its target M3P6 (MAGI-3 PDZ6) (Homo sapiens, UniProt Q5TCQ9). Type of experiment: binding. The note with it: for selectivity for M3P6 over N2P2: ratio of Ki values of Table 1; for shift in selectivity towards M3P6: relative to the native peptide, M3P6 vs N2P2.
The target in experiment [1] is M3P6m (I71V mutant of M3P6) (Homo sapiens, UniProt Q5TCQ9, I1085V). Type of experiment: binding.
A further experiment concerns the target N2P2 (NHERF-2 PDZ2) (Homo sapiens, UniProt Q15599). Description: biochemical.

We go through 11 compounds from article PMC4970318 (Journal of molecular biology, 2014).

Peptide text beside a SMILES is read from it. * marks the point of attachment. FITC = O=C1OC2(c3ccc(O)cc3Oc3cc(O)ccc32)c2ccc(NC(=S)*)cc21; Ahx = NCCCCCC(=O)O

Chain of M3P6m (I71V mutant of M3P6) (Q5TCQ9 1040-1149 isoform Q5TCQ9-2 I1110V): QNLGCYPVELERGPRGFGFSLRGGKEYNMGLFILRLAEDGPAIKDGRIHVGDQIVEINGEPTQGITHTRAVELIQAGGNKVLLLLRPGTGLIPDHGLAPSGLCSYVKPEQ
Chain of M3P6 (MAGI-3 PDZ6) (Q5TCQ9 1040-1149 isoform Q5TCQ9-2): as the sequence (Q5TCQ9 1040-1149 isoform Q5TCQ9-2 I1110V) above, with V71I counted along it
Chain of N2P2 (NHERF-2 PDZ2) (Q15599 143-280): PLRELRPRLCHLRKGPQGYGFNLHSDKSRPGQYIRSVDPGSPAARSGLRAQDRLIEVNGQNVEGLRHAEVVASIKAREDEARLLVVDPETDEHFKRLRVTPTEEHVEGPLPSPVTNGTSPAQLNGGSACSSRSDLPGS

With `CC(C)[C@H](NC(=O)[C@H](Cc1c[nH]c2ccccc12)NC(=O)[C@@H](NC(=O)[C@H](CCC(=O)O)NC(=O)[C@H](Cc1ccccc1)NC(=O)[C@@H](N)CC(=O)O)[C@@H](C)O)C(=O)O` [RD1, DFETWV] (H-DFETWV-OH), on M3P6 (MAGI-3 PDZ6), the Ki worked out at 1.8 ± 0.5 µM, the “selectivity for M3P6 over N2P2” value was 3 fold and the “shift in selectivity towards M3P6” value stood at 5 fold.
In experiment [1], `CC(C)[C@H](NC(=O)[C@H](CCCNC(=N)N)NC(=O)[C@@H](NC(=O)[C@H](C)NC(=O)[C@H](Cc1ccccc1)NC(=O)[C@@H](N)CC(=O)O)[C@@H](C)O)C(=O)O` [CAR, DFATRV] (H-DFATRV-OH) returned a Ki of 285 ± 24.5 µM.
Consider `C[C@@H](O)[C@H](N)C(=O)NCC(=O)N[C@@H](CCC(=O)O)C(=O)N[C@H](C(=O)N[C@H](C(=O)N[C@@H](Cc1ccccc1)C(=O)O)[C@@H](C)O)[C@@H](C)O` [FD1, TGETTF] (H-TGETTF-OH), for which the inhibition constant (Ki) at M3P6 (MAGI-3 PDZ6) turned out to be 600 ± 300 µM; in experiment [1], 151 ± 15.9 µM.
`CC(C)[C@H](NC(=O)[C@H](Cc1c[nH]c2ccccc12)NC(=O)[C@@H](NC(=O)[C@H](CC(=O)O)NC(=O)[C@H](Cc1ccccc1)NC(=O)CN)[C@@H](C)O)C(=O)O` [RD3, GFDTWV] (H-GFDTWV-OH) came in with a Ki on M3P6 (MAGI-3 PDZ6) of 6.8 ± 1.5 µM.
As to `CC(C)[C@H](NC(=O)[C@H](Cc1c[nH]c2ccccc12)NC(=O)[C@@H](NC(=O)[C@H](CCC(=O)O)NC(=O)[C@H](Cc1ccccc1)NC(=O)CN)[C@@H](C)O)C(=O)O` [RD2, GFETWV] (H-GFETWV-OH), at M3P6 (MAGI-3 PDZ6), affinity was put at a Ki of 2.7 ± 0.4 µM, the “selectivity for M3P6 over N2P2” value stood at 4.6 fold and the “shift in selectivity towards M3P6” value is 8 fold.
Turning to `C[C@@H](O)[C@H](NC(=O)[C@H](CO)NC(=O)CNC(=O)[C@@H](N)CO)C(=O)N[C@@H](Cc1c[nH]cn1)C(=O)N[C@@H](Cc1ccccc1)C(=O)O` [FD3, SGSTHF] (H-SGSTHF-OH), the Ki on M3P6 (MAGI-3 PDZ6) is > 1000 µM.
The compound `CC(C)[C@H](NC(=O)[C@H](CCCNC(=N)N)NC(=O)[C@@H](NC(=O)[C@H](CO)NC(=O)[C@H](Cc1ccccc1)NC(=O)[C@@H](N)CC(=O)O)[C@@H](C)O)C(=O)O` [CSR, DFSTRV] (H-DFSTRV-OH) registered a Ki in experiment [1] of 510 ± 51.4 µM.
As for `CC(C)[C@H](NC(=O)[C@@H](NC(=O)[C@@H](NC(=O)[C@H](CO)NC(=O)[C@H](Cc1ccccc1)NC(=O)[C@@H](N)CC(=O)O)[C@@H](C)O)[C@@H](C)O)C(=O)O` [CST, DFSTTV] (H-DFSTTV-OH), affinity in experiment [1] was put at a Ki of 242 ± 17.6 µM.
Take `CC(C)[C@H](NC(=O)[C@@H](NC(=O)[C@@H](NC(=O)[C@H](C)NC(=O)[C@H](Cc1ccccc1)NC(=O)[C@@H](N)CC(=O)O)[C@@H](C)O)[C@@H](C)O)C(=O)O` [CAT, DFATTV] (H-DFATTV-OH): in experiment [1], the Ki came to 351 ± 17.9 µM.
Consider `C[C@@H](O)[C@H](NC(=O)[C@H](CO)NC(=O)CNC(=O)[C@H](CO)NC(=O)CNC(=O)CNC(=O)CCCCCNC(=S)Nc1ccc2c(c1)C(=O)OC21c2ccc(O)cc2Oc2cc(O)ccc21)C(=O)N[C@@H](CCCNC(=N)N)C(=O)N[C@@H](Cc1ccccc1)C(=O)O` [FD2 8-mer, FITC-Ahx-GGSGSTRF] ({FITC-Ahx}-GGSGSTRF-OH), for which the Kd at N2P2 (NHERF-2 PDZ2) was determined as 3.6 ± 0.5 µM.
In the case of `CSCC[C@H](NC(=O)[C@@H](N)CC(C)C)C(=O)N[C@@H](CC(=O)O)C(=O)N[C@@H](CO)C(=O)N[C@H](C(=O)N[C@@H](CC(C)C)C(=O)O)[C@@H](C)O` [LPA2 6-mer, LMDSTL, reference compound] (H-LMDSTL-OH), the Ki on M3P6 (MAGI-3 PDZ6) is 47.4 ± 2.6 µM; in experiment [1], 67.7 ± 5.4 µM.
